The values that follow come from the Kinase Knowledgebase extract (Sharma et al. 2016).

Structures are written as SMILES. Bounds are passed on as bounds.

This assay concerns the target PIK3CA (human) (UniProt P42336). In words: Assessment of PIK3CA Kinase Activity.

Chain of PIK3CA (human) (P42336 whole entry, looked up): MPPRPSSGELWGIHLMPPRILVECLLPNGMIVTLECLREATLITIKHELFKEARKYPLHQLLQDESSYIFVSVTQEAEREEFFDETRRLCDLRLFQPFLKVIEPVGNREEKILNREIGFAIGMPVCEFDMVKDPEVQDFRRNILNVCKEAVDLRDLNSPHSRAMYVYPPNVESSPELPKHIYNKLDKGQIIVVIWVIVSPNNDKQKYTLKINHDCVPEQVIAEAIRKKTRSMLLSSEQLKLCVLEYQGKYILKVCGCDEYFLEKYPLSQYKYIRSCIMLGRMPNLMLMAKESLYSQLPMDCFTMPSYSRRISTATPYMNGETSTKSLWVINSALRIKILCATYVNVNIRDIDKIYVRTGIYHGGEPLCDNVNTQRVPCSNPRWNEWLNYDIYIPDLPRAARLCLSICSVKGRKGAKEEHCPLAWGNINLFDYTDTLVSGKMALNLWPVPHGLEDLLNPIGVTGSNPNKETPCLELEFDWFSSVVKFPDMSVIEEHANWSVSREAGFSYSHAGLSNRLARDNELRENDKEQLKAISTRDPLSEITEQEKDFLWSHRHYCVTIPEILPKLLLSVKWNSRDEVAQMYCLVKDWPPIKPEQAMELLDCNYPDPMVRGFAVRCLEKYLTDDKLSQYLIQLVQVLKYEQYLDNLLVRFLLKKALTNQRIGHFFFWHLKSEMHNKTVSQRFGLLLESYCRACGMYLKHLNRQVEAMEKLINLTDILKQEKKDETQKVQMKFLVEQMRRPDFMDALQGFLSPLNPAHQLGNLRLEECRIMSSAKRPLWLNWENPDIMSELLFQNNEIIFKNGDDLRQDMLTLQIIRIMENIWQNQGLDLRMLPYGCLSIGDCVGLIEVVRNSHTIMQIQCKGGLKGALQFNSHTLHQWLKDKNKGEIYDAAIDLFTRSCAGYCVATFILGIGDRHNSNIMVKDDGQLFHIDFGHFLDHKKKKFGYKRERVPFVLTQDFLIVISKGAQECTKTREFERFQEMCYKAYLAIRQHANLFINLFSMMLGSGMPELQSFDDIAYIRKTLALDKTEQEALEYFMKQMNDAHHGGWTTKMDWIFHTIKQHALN

As for `CC(C)n1ncnc1-c1nc2c(s1)CCOc1cc(C3CCN(CC(N)=O)CC3)ccc1-2`, the IC50 was less than 1000 nM.
Compound `CN(C)[C@@H]1CCN(C(=O)c2nc3c(s2)CCOc2cc(-c4cn[nH]c4)ccc2-3)C1` showed an IC50 of less than 1000 nM.

One may read the IC50 as the concentration that inhibits the measured activity by half. A low value points to greater potency.
